This is an account of results in patent publication US20230174485A1, “LIPOXYGENASE INHIBITORS” (SRI International, priority 2020, published 2023).

SMILES strings stand for the structures. Where “and” joins values, the source holds several entries; their conditions need not be identical. Identical values can stand only once. Like-named read-outs stand apart in the source and are kept apart here.

Usually IC50 stands for the concentration at which inhibition is half-maximal.

Common to all, as to format: biochemical
Test [1] deals with T1, recombinant 12-LOX enzyme (Homo sapiens, UniProt P18054).
T1 sequence (P18054 1-663): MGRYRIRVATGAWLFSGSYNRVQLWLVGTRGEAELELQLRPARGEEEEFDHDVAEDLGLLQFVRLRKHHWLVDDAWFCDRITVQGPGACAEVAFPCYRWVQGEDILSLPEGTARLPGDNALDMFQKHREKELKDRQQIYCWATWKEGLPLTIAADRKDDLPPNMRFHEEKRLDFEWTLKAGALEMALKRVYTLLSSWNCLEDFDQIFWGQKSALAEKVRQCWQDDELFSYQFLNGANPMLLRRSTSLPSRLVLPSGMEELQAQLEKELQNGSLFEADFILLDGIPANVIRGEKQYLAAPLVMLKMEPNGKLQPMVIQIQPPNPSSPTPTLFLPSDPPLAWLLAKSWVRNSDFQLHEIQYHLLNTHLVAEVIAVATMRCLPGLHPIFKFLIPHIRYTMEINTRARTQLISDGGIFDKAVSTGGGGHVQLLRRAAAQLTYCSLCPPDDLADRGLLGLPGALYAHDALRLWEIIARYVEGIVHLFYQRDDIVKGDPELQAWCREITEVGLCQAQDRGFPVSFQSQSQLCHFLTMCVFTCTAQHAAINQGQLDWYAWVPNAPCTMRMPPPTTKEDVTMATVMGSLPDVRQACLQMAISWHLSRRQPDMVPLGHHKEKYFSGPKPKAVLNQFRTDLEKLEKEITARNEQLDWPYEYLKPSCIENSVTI
Nature of the test: 12-LOX fluorescent assay. The note with it: several values in one cell = repeat determinations. As for the experimental part: (§1) 12-LOX/15-LOX Fluorescent Assay
(§2) The enzyme assay (100 ul) contained 50 mM Tris, pH 7.5, 0.05% Tween-20, 20 μM AA/LA, 1 μM DHR123, and 100 nM recombinant 12-LOX enzyme/50 nM recombinant 15-LOX enzyme. Inhibitors (dissolved in DMSO) were plated at 1 μL into 96-well assay microplates followed by a 40 μL addition of a solution containing 12-LOX/15-LOX enzyme. Enzyme was pre-incubated with compounds for 15 mins. The assay was initiated by the addition of a 40 μL substrate solution containing AA/LA, and 20 μL addition of a solution containing DHR123. Enzymatic reaction proceeded for 30 min with kinetic reading at 500 nm excitation & 536 nm emission in SpectraMax Paradigm (MolecularDevice). Percent inhibition was calculated for each compound dose for IC50 curve fitting using 4 Parameter Logistic Model or Sigmoidal Dose-Response Model.

The target in test [2] is T2, recombinant 15-LOX enzyme (Homo sapiens, UniProt P16050).
T2 sequence (P16050 1-662): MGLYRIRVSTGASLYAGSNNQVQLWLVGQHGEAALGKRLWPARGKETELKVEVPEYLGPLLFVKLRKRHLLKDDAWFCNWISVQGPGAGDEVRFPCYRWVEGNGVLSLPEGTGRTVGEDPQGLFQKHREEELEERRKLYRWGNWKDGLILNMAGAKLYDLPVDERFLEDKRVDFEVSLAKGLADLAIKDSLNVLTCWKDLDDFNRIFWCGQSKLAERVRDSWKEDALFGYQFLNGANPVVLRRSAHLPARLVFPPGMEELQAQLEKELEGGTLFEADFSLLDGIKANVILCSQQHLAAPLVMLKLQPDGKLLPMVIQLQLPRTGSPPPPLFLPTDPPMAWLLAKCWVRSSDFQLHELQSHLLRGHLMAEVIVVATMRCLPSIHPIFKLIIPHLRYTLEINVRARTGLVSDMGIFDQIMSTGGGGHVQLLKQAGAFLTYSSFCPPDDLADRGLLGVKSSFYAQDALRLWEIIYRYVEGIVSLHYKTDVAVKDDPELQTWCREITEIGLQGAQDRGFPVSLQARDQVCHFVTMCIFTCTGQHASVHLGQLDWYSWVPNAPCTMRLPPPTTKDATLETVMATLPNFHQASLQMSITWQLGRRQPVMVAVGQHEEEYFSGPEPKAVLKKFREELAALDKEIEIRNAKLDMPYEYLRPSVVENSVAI
Put plainly: 15-LOX fluorescent assay. The note with it: several values in one cell = repeat determinations. How it is done:
as §1, §2

In another test the target is T3, recombinant 5-LOX (Homo sapiens, UniProt P09917).
T3 sequence (P09917 1-674): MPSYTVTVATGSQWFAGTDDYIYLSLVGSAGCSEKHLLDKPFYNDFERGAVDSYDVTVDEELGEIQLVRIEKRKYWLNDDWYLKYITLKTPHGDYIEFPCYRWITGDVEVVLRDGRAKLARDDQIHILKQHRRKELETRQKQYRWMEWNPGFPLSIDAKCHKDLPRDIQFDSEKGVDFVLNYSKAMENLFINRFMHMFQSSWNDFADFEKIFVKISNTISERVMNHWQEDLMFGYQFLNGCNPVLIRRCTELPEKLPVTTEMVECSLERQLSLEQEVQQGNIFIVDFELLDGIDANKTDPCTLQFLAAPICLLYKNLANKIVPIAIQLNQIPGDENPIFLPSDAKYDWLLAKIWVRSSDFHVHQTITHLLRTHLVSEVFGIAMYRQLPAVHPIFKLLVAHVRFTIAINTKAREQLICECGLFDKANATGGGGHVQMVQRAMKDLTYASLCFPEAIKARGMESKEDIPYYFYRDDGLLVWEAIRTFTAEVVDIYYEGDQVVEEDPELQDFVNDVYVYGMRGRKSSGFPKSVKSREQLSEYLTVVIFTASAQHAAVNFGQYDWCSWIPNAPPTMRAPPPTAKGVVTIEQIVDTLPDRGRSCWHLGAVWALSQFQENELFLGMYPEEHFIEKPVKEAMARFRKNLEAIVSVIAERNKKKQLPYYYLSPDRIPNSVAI
Put plainly: 5-LOX fluorescent assay. The note with it: several values in one cell = repeat determinations; read-out: IC50 (μM) values for in vitro lipoxygenase inhibition, 5-LOX. As for the experimental part: 5-LOX FI assay Fluorescent Assay
The enzyme assay (100 μL) contained 50 mM Tris, pH 7.5, 0.1 mM EDTA, 0.3 mM CaCl2, 20 μM AA, 100 μM ATP, 1 μM DHR123, and recombinant 5-LOX cell lysate (0.5 μL/100 μL). Inhibitors (dissolved in DMSO) were plated at 1 μL into 96-well assay microplates followed by a 40 μL addition of a solution containing 5-LOX enzyme. Enzyme was pre-incubated with compounds for 15 mins. The assay was initiated by the addition of a 40 μL substrate solution containing AA and ATP, and 20 μL addition of a solution containing DHR123. Enzymatic reaction proceeded for 30 min with kinetic reading at 500 nm excitation & 536 nm emission in SpectraMax Paradigm (MolecularDevice). Percent inhibition was calculated for each compound dose for IC50 curve fitting using 4 Parameter Logistic Model or Sigmoidal Dose-Response Model.

[3] abbreviates: read-out: IC50 (μM) values for in vitro lipoxygenase inhibition, 12-LOX.
Setting [4] is: read-out: IC50 (μM) values for in vitro lipoxygenase inhibition, 15-LOX.

On to `c1ccc2c(c1)[nH]c1cc3c(cc12)CCN3CCn1cncn1` [SS20308-0180-01, 1-(2-(1H-1,2,4-triazol-1-yl)ethyl)-1,2,3,9-tetrahydropyrrolo[2,3-b]carbazole], for which the concentration for half-maximal inhibition (IC50) in test [1] (setting [3]) is 0.03 µM and 0.08 µM; in test [2] (setting [4]), 0.39 µM and 0.51 µM; at recombinant 5-LOX it was 0.44 µM and 0.81 µM.
Regarding `Clc1c(NCCn2cncn2)ccc2c1Nc1ccccc1CC2` [SS20308-0273-01, N-(2-(1H-1,2,4-triazol-1-yl)ethyl)-4-chloro-10,11-dihydro-5H-dibenzo [b,f]azepin-3-amine], the IC50 in test [1] (setting [3]) stood at 2.66 µM; in test [2] (setting [4]), 9.82 µM; at recombinant 5-LOX it was 5.6 µM.
In the same order, the values of `CN(C)C(=O)CC(c1ccccc1)c1ccc2[nH]c3ccccc3c2c1` (stereo not drawn) [SS20308-0222-01, 3-(9H-carbazol-3-yl)-N,N-dimethyl-3-phenylpropanamide] are 14 µM, 4.53 µM and 10.9 µM.
In the same order, the values of `CN(C)CCOc1c(CNc2ccccc2)ccc2c1[nH]c1ccccc12` [SS20308-0086-01, N-((1-(2-(dimethylamino)ethoxy)-9H-carbazol-2-yl)methyl)aniline] are 0.87 µM, 0.42 µM and 0.62 µM.
Consider `Cc1c2[nH]c3ccccc3c2c(CCCN(C)C)c2[nH]c3ccccc3c12` [SS20308-0100-01, N,N-dimethyl-3-(12-methyl-5,11-dihydroindolo[3,2-b]carbazol-6-yl)propan-1-amine], for which the concentration for half-maximal inhibition (IC50) (in test [1] (setting [3]); in test [2] (setting [4]); on recombinant 5-LOX) was over 100 µM in each case.
Turning to `CN(C)CCCNc1ccc2c(c1)Nc1ccccc1CC2` [SS20308-0270-01, N^1-(10,11-dihydro-5H-dibenzo[b,f]azepin-3-yl)-N^3,N^3-dimethylpropane-1,3-diamine], the IC50 in test [1] (setting [3]) is 0.1 µM; in test [2] (setting [4]) it was 1.08 µM and 0.9 µM; on recombinant 5-LOX, 0.15 µM.
As to `c1ccc(-c2cc(NCCCn3cncn3)cc3c2[nH]c2ccccc23)cc1` [SS20308-0111-01, N-(3-(1H-1,2,4-triazol-1-yl)propyl)-1-phenyl-9H-carbazol-3-amine], the IC50 in test [1] (setting [3]) came out at 44.9 µM; in test [2] (setting [4]), 0.09 µM; at recombinant 5-LOX, 20.3 µM.
Turning to `CN(C)CCOc1cc(Oc2ccccc2)cc2c1[nH]c1ccc(F)cc12` [SS20308-0054-01], the 50% inhibitory concentration (IC50) was 7.6 µM in test [1] (setting [3]), 1.82 µM in test [2] (setting [4]) and 6.83 µM on recombinant 5-LOX.
With `c1ccc(N(CCCn2cncn2)c2ccc3c(c2)[nH]c2ccccc23)cc1` [SS20308-0060-01, N-(3-(1H-1,2,4-triazol-1-yl)propyl)-N-phenyl-9H-carbazol-2-amine], the IC50 is 0.99 µM in test [1] (setting [3]), 2.19 µM in test [2] (setting [4]) and 0.62 µM at recombinant 5-LOX.
In the case of `CN(C)CCOc1c(-c2ccccc2[N+](=O)[O-])ccc2c1[nH]c1ccccc12` [SS20308-0077-01, N,N-dimethyl-2-(2-(2-nitrophenyl)-9H-carbazol-1-yloxy)ethanamine], the IC50 in test [1] (setting [3]) amounted to 2.32 µM; in test [2] (setting [4]) it was 2.15 µM; on recombinant 5-LOX it was 2.66 µM.
In the same order, the values of `CC1(C)CN(CCn2cncn2)c2cc3[nH]c4ccccc4c3cc21` [SS20308-0209-01, 1-(2-(1H-1,2,4-triazol-1-yl)ethyl)-3,3-dimethyl-1,2,3,9-tetrahydropyrrolo[2,3-b] carbazole] are 0.03 µM, 1.12 µM and 0.92 µM.
For `c1ccc2c(c1)CCc1cc(NCCn3cncn3)ccc1N2` [SS20308-0276-01, N-(2-(1H-1,2,4-triazol-1-yl)ethyl)-10,11-dihydro-5H-dibenzo[b,f]azepin-2-amine], the concentration for half-maximal inhibition (IC50) in test [1] (setting [3]) is 0.03 µM and 0.02 µM; in test [2] (setting [4]), 0.28 µM and 0.1 µM; on recombinant 5-LOX it was 0.13 µM and 0.06 µM.
On to `CN(C)CCOc1c(N)cc(Cl)c2c1[nH]c1ccc(F)cc12` [SS20308-0069-01, 4-chloro-1-(2-(dimethylamino)ethoxy)-6-fluoro-9H-carbazol-2-amine], for which the IC50 in test [1] (setting [3]) stood at 7.93 µM; in test [2] (setting [4]) it was 8.34 µM; on recombinant 5-LOX, 14.8 µM.
Consider `CN(C)CCCn1c2c(c3ccccc31)CC(Nc1ccccc1)CC2` (stereo not drawn) [SS20308-0159-01, 9-(3-(dimethylamino)propyl)-N-phenyl-2,3,4,9-tetrahydro-1H-carbazol-3-amine], for which the concentration for half-maximal inhibition (IC50) in test [1] (setting [3]) turned out to be 2.75 µM; in test [2] (setting [4]), 1.59 µM; at recombinant 5-LOX it was 1.85 µM.
`c1ccc2c(c1)[nH]c1cc3c(ccn3CCn3cncn3)cc12` [SS20308-0062-01, 1-(2-(1H-1,2,4-triazol-1-yl)ethyl)-1,9-dihydropyrrolo[2,3-b]carbazole]: the IC50 in test [1] (setting [3]) was 0.19 µM and 0.24 µM; in test [2] (setting [4]), 0.94 µM and 1.68 µM; on recombinant 5-LOX, 0.53 µM and 0.42 µM.
Take `c1ccc2c(c1)[nH]c1c(OCCn3cncn3)c3c(cc12)[nH]c1ccccc13` [SS20308-0059-01, 6-(2-(1H-1,2,4-triazol-1-yl)ethoxy)-5,11-dihydroindolo[3,2-b]carbazole]: the IC50 in test [1] (IC50 (μM) values for in vitro lipoxygenase inhibition, 12-LOX) was 0.03 µM and 0.02 µM; in test [2] (IC50 (μM) values for in vitro lipoxygenase inhibition, 15-LOX), 0.03 µM and 0.02 µM; at recombinant 5-LOX, 0.04 µM and 0.03 µM.
With `Clc1cc2c(cc1NCCn1cncn1)Nc1ccccc1CC2` [SS20308-0251-01, N-(2-(1H-1,2,4-triazol-1-yl)ethyl)-2-chloro-10,11-dihydro-5H-dibenzo[b,f]azepin-3-amine], the IC50 was 0.05 µM and 0.22 µM in test [1] (setting [3]); 0.75 µM and 0.73 µM in test [2] (setting [4]); 0.45 µM and 0.56 µM at recombinant 5-LOX.
